Laboratory results published in US20230220206A1, “REJUVENATING AGENTS FOR ASPHALT RECYCLING” (BASF SE, priority 2020, published 2023).
Like-named read-outs stand apart in the source and are kept apart here.

Legend:
[1] = MSCR test, percentage elastic recovery; format: physicochemical; conditions: bitumen 20/30 + 5% compound
[2] = Softening point of rejuvenated aged bitumen; format: physicochemical; conditions: aged bitumen 50/70 BP + 5% compound
[3] = format: physicochemical; conditions: aged bitumen 50/70 BP + 5% compound
[4] = MSCR elastic recovery of rejuvenated aged bitumen; format: physicochemical; conditions: aged bitumen 50/70 BP + 5% compound
[5] = Softening point of rejuvenated aged bitumen; format: physicochemical; conditions: aged bitumen 50/70 PCK Schwedt + 5% compound
[6] = Softening point of rejuvenated RAP bitumen; format: physicochemical; conditions: bitumen extracted from RAP + 5% compound
[7] = format: physicochemical; conditions: bitumen extracted from RAP + 5% compound
[8] = MSCR elastic recovery of rejuvenated RAP bitumen; format: physicochemical; conditions: bitumen extracted from RAP + 5% compound
[9] = Low temperature performance, bending beam rheometer (BBR) at −16° C.; format: physicochemical; conditions: bitumen 20/30 + 5% compound
Description: (§1) Different bitumen samples were rejuvenated as in Example 1, and the BBR values S (flexural creep stiffness) and m […] were evaluated at −16° C. The results were compared to the not rejuvenated bitumen sample as well as to the bitumen rejuvenated with the benchmark RheoFalt® HP-AM (Comp. 1.3).

[10] = Loss tangent from DSR frequency sweep at 60° C.; format: physicochemical
Source text: In addition, it could be shown that additives according to the present invention perform most of the times better than the common benchmarks according to the standard testing techniques for the low, mid and high temperature range. What cannot be extracted from these measurements however is an indication of the working mechanism.

[11] = Softening point of rejuvenated polymer-modified bitumen; format: physicochemical; conditions: Olexobit 45 + 5% compound
[12] = format: physicochemical; conditions: Olexobit 45 + 5% compound
[13] = MSCR elastic recovery of rejuvenated polymer-modified bitumen; format: physicochemical; conditions: Olexobit 45 + 5% compound
[14] = BBR of rejuvenated polymer-modified bitumen; format: physicochemical; conditions: Olexobit 45 + 5% compound
Description: as §1

[15] = Force ductility of rejuvenated polymer-modified bitumen; format: physicochemical; conditions: Olexobit 45 + 5% compound
Source text: (§2) Herewith, it will be shown that the positive effects of the here claimed rejuvenating agents can also be applied to PmB, in this case Olexobit 45. Olexobit 45 was therefore rejuvenated according to the procedure of Example 1.

[16] = Ageing index (RTFOT ageing) of rejuvenated polymer-modified bitumen; format: physicochemical; conditions: Olexobit 45 + 5% compound; viscosity after ageing divided by viscosity before ageing
Source text: as §2

[17] = bitumen 20/30 + 5% compound
[18] = Softening point ring & ball of rejuvenated bitumen; conditions: bitumen 20/30 rejuvenated with 5% of the compound, 180° C., 30 minutes

Substance: Polypropylenglycol bis glycidylether
- MSCR % Rec. (0.1 kPa) ([1]; 0.1 kPa): 8%
- MSCR % Rec. (1.6 kPa) ([1]; 1.6 kPa): 2%
- MSCR % Rec. (3.2 kPa) ([1]; 3.2 kPa): 1%
- SP [° C.] [2]: 54.0 °C
- η(135° C.) [mPas] [3]: 800 mPas
- MSCR % Rec. (0.1 kPa) ([4]; 0.1 kPa): 7%
- MSCR % Rec. (1.6 kPa) ([4]; 1.6 kPa): 3%
- MSCR % Rec. (3.2 kPa) ([4]; 3.2 kPa): 1%
- SP [° C.] [5]: 52.5 °C
- SP [° C.] [6]: 57.0 °C
- η(135° C.) [mPas] [7]: 1,100 mPas
- MSCR % Rec. (0.1 kPa) ([8]; 0.1 kPa): 10%
- MSCR % Rec. (1.6 kPa) ([8]; 1.6 kPa): 6%
- MSCR % Rec. (3.2 kPa) ([8]; 3.2 kPa): 3%
- S-value [MPa] (flexural creep stiffness) [9]: 105 MPa
- m-value [9]: 0.43
- tan δ ([10]; aged bitumen 50/70 BP + 5% compound, lowest frequency): 75
- tan δ ([10]; aged bitumen 50/70 PCK Schwedt + 5% compound, lowest frequency): 105
- tan δ ([10]; bitumen 20/30 + 5% compound, lowest frequency (0.01 rad/s)): 55
- tan δ ([10]; bitumen extracted from RAP + 5% compound, lowest frequency): 45
- SP [° C.] [11]: 48.0 °C
- η(135° C.) [mPas] [12]: 650 mPas
- MSCR % Rec. (0.1 kPa) ([13]; 0.1 kPa): 15%
- MSCR % Rec. (1.6 kPa) ([13]; 1.6 kPa): 4%
- MSCR % Rec. (3.2 kPa) ([13]; 3.2 kPa): 1%
- BBR S-value [MPa] [14]: 120 MPa
- BBR m-value [14]: 0.39
- Force Ductility Fmax [N] [15]: 14 N
- Force Ductility W [J/cm^2] [15]: 1.1 J/cm^2
- AI (ageing index) [16]: 2.2
- η(135° C.) [mPas] [17]: 900 mPas
- SP [° C.] (softening point) [18]: 50.0 °C
